We go through four compounds from PMC11096480, “The road to evolution of ProTx2: how to be a subtype-specific inhibition of human Nav1.7” (Frontiers in Pharmacology, 2024).

“Also recorded” adds a separate entry of the source. Where no end group is shown, it is not given here.

In series [1] the test system is KM mice. Briefly: formalin-induced paw-licking test. The series is classed as in vivo. The method, then: Male KM mice (18–22 g) were obtained from Liaoning Changsheng Biotechnology Co., Ltd. The mice were acclimated for 1 week at 18°C–22°C and 50%–70% humidity, following approval by the Animal Ethics Committee of Shenyang Pharmaceutical University, China. The pain response was assessed using a formalin-induced paw-licking test. The saline solution, 5 mg/kg morphine, commonly used analgesic medications in clinical practice, or 0.75 mg/kg peptides, ProTx II, and its mutants, were injected via the tail vein to relief the pain. After half an hour, a 20-μL 5% (v/v) formalin solution was administered as an activator to induce pain in mice (n = 10) ([Miranda et al., 2007]). The cumulative pain behavior that occurred 0–5 min (phase I, an immediate nociceptive phase) and 20–60 min (phase II, a later inflammatory phase) after injection was recorded for 60 min at 5 min intervals in individual cages to measure the total licking time in phases I and II, respectively.

The test system of series [2] is KM mice. Briefly: forced swimming test. In kind it is in vivo. As for the experimental part: Additionally, a forced swimming test measured endurance following 7 days of treatment with ProTx2 or its mutants ([Porsolt et al., 1977]; [Galeotti et al., 2002]; [Xu et al., 2017]). Fifty male KM mice were randomly divided into five groups with 10 mice in each group. The groups were classified as normal saline control, ProTx2, R13A, R13D, and K27Y.
Following a 7-day treatment regimen, mice received injections of ProTx2 or its mutants and underwent forced swimming tests 20 min after the final treatment.

Series [3] deals with hNav1.4. Briefly: whole-cell patch clamp, CHO-Nav1.4 sodium current. In kind it is cell-based, human. As for the experimental part: (§1) Nav1.4-CHO cells and Nav1.7-CHO cells were maintained in Iscove’s modified Dulbecco’s medium (Gibco) supplemented with 10% (v/v) fetal bovine serum (FBS) and 200 μg/mL G418 (Sigma). All cells were cultured at 37 °C and 5% CO2 atmosphere. Mouse myoblasts C2C12, obtained from the Stem Cell Bank of The Chinese Academy of Sciences, were grown in Dulbecco’s modified Eagle‘s medium (DMEM) enriched with 10% heat-inactivated FBS, 2 mM L glutamine, 100 U/mL of penicillin, and 100 μg/mL of streptomycin. The C2C12 cells typically reached confluence in 3–5 days in 75-T flasks. For passaging, monolayers were treated with 0.25% trypsin for 3–5 min, rinsed twice with DMEM, and sub-cultured at a ratio of 1:4. Similarly, the Chinese hamster ovary (CHO) cells were cultured in IMDM medium supplemented with 10% fetal bovine serum, 1% penicillin/streptomycin, 100 μM hypoxanthine, and 16 μM thymidine. When 90% confluence was achieved, cells were separated by 0.25% trypsin EDTA, and patch clamp electrophysiology experiments were carried out.
(§2) Automatic electrophysiological platforms (NPC-1 and Port-a-Patch systems, […], Munich, Germany) and EPC10 amplifiers (HEKA Elektronik, Lambrecht, Germany) assessed the effects of recombinant ProTx2 and its mutants on CHO-Nav1.4 and CHO-Nav1.7. […]
For orientation: The patch-clamp technique gives a direct electrical read-out from membranes.

The subject of series [4] is C2C12 cells. Briefly: C2C12 cell viability (CCK8 assay). In kind it is cell-based, mouse. Conditions: CCK8, 450 nm, 18-h exposure, 0-160 μg/mL, serum-free, n = 5; R13D effect particularly between 100 and 160 μg/mL; relative to wild-type peptide. As for the experimental part:
as §1
C2C12 cell viability in response to ProTx2 or it mutants was evaluated using the CCK8 assay ([Pan et al., 2019]; [Ge et al., 2020]). […] After 18 h of treatment, cell viability was assessed by measuring the absorbance at 450 nm, following the addition of the CCK-8 reagent.
Background: Tetrazolium dyes change colour on reduction, which living cells bring about.

Series [5] deals with hNav1.7. Put plainly: whole-cell patch clamp, CHO-Nav1.7 sodium current. In kind it is cell-based, human. As for the experimental part:
as §1, §2

Series [6] has as its target human voltage-gated sodium channel Nav1.7, on CHO cells (human) (UniProt Q15858).
Chain of UniProt Q15858 (Q15858 whole entry): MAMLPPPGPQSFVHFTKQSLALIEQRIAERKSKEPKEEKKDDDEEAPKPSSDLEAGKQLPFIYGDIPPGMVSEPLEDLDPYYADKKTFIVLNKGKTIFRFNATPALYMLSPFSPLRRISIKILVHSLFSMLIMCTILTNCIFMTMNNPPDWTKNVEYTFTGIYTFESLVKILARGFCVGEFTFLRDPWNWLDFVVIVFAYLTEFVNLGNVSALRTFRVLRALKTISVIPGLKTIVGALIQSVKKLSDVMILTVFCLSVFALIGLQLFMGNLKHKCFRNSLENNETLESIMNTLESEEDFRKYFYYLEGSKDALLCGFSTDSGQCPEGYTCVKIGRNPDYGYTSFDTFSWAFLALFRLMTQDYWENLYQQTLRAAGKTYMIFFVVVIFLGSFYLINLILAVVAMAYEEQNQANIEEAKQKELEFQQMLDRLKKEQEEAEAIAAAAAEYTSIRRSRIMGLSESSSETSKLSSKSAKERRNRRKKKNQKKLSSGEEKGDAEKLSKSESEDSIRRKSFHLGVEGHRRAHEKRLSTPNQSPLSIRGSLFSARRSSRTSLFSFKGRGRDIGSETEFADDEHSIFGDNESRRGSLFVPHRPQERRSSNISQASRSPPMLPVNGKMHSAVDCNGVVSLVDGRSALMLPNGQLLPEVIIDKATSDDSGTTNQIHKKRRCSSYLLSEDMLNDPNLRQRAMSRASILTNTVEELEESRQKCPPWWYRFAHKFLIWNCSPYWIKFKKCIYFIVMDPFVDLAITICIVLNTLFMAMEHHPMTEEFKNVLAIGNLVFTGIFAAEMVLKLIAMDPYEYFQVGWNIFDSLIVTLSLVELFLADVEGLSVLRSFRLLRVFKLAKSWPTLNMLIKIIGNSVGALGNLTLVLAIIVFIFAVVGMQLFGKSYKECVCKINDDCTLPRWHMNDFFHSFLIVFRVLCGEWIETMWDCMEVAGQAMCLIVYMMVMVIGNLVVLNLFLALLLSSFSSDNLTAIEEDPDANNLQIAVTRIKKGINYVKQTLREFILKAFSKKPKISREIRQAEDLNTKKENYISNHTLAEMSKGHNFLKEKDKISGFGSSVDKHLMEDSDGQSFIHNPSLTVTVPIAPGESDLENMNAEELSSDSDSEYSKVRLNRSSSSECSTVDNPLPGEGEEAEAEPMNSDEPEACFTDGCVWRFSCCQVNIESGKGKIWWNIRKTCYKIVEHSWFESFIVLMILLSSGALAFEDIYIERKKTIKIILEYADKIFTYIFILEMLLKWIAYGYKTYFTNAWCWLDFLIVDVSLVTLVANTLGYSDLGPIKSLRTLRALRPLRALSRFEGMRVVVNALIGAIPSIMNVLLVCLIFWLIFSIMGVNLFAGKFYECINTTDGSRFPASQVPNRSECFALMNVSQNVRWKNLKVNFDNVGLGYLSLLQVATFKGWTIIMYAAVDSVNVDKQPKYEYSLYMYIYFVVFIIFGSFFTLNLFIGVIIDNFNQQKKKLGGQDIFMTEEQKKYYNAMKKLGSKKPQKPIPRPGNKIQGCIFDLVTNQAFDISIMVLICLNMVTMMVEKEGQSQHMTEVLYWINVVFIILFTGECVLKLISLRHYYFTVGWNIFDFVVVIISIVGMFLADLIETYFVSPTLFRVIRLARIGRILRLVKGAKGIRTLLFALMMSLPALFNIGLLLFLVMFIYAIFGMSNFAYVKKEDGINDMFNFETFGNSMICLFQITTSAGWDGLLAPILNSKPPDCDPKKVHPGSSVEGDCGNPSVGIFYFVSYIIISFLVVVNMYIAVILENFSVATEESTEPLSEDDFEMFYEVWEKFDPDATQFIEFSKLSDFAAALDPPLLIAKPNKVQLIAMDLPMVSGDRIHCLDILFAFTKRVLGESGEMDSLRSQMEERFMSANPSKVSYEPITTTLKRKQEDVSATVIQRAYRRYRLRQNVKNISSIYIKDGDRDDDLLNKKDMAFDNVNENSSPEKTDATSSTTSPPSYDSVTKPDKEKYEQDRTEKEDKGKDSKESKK
Series [7] has as its target human voltage-gated sodium channel Nav1.4, on CHO cells (human) (UniProt P35499).
Chain of UniProt P35499 (P35499 whole entry): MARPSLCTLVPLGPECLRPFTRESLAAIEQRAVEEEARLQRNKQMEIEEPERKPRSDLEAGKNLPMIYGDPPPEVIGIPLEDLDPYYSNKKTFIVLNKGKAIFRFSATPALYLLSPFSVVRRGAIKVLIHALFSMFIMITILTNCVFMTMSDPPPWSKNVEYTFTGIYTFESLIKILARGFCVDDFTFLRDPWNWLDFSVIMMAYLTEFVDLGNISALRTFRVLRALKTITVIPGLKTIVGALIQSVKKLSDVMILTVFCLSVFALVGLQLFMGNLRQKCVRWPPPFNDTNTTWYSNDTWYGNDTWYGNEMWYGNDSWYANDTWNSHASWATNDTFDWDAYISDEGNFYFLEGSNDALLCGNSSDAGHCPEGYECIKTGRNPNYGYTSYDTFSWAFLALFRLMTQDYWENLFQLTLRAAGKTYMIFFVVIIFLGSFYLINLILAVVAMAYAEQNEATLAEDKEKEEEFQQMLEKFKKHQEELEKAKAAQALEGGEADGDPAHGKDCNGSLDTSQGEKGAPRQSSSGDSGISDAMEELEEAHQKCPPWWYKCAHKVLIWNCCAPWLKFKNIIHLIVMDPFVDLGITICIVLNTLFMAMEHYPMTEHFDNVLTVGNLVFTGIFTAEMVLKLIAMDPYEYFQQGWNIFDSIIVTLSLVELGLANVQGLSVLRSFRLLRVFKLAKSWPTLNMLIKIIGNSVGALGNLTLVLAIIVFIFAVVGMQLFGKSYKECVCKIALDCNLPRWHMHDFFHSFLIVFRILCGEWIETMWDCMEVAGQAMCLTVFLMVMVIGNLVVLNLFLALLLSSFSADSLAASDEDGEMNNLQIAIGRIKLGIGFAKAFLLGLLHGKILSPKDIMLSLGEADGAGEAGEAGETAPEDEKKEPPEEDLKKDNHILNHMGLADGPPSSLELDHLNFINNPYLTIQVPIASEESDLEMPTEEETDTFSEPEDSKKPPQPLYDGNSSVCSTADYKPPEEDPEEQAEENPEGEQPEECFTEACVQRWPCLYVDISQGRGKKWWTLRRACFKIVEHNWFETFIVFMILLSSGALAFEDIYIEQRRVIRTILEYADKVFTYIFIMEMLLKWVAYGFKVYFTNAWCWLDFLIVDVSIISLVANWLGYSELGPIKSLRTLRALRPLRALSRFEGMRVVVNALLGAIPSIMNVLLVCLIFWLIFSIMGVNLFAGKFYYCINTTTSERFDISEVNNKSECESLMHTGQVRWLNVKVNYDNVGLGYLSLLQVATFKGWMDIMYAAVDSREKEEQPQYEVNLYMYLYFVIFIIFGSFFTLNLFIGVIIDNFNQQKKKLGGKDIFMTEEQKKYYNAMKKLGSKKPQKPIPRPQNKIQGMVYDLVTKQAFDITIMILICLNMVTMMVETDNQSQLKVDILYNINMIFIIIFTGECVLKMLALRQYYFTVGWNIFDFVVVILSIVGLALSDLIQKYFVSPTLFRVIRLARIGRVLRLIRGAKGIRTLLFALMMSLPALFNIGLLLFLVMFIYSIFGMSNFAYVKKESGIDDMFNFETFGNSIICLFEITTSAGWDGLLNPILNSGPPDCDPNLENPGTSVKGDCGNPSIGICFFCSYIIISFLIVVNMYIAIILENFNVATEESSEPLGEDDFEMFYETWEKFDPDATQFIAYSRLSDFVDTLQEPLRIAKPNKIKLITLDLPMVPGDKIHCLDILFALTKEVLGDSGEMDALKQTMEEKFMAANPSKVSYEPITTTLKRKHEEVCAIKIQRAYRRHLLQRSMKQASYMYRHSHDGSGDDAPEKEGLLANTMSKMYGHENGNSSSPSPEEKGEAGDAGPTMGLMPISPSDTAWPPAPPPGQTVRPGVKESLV

Turning to “R13D: single-point mutation (R13D) in ProTx2 (YCQKWMWTCDSEDKCCEGMVCRLWCKKKLW; ends and bridges not checked; cysteine pairing not given here)”, the “analgesic effect” value in series [1] (formalin model, 0.75 mg/kg peptide, tail vein, versus wild-type ProTx2, 0.75 mg/kg) was “maintained the analgesic effect in mice; also recorded: significantly alleviated pain in both the acute and inflammatory phases, outperforming the wild-type ProTx2”. Besides, the “total licking time, phase I” value in series [1] (phase I (0–5 min), 0.75 mg/kg peptide, tail vein, half an hour before 20 μL 5% formalin, male KM mice, n = 10) is reported as 33.5 ± 1.6 s. For the same compound, the “total licking time, phase II” value in series [1] (phase II (20–60 min), 0.75 mg/kg peptide, tail vein, half an hour before 20 μL 5% formalin, male KM mice, n = 10) turned out to be 128.0 ± 5.2 s. Further, the “swimming endurance / muscular toxicity” value in series [2] (7-day treatment, test 20 min after final treatment, male KM mice, n = 10, versus wild-type ProTx2) was “significantly prolonged endurance compared to the wild-type ProTx2 group, suggesting reduced muscular toxicity (p < 0.05)”. Further, in series [2] (summary in abstract, compared with ProTx2), the “muscle toxicity” value was “dramatically reducing its muscle toxicity compared with ProTx2”. In addition, the “peak sodium current amplitude, hNav1.4” value in series [3] (1 μM, normalized Na+ peak current at −30 mV, CHO cells, whole-cell, holding −80 mV, 22°C, 10 cells per set) stood at 59%. Besides, the “inhibition of hNav1.4 current” value in series [3] (CHO-Nav1.4, whole-cell, relative to ProTx2 for R13D) was “marginally diminished effect on hNav1.4”. The “C2C12 cellular viability” value in series [4] is “significantly improved cellular viability in a concentration-dependent manner, particularly between 100 and 160 μg/mL”. Besides, the “peak sodium current amplitude, hNav1.7” value in series [5] (1 μM, normalized Na+ peak current at −30 mV, CHO cells, whole-cell, holding −80 mV, 22°C, 10 cells per set, R13D vs ProTx2 p < 0.01) amounted to 68%. Further, in series [5] (CHO-Nav1.7, whole-cell, relative to ProTx2 for R13D), the “inhibition of hNav1.7 current” value is given as “pronouncedly intensified inhibition of hNav1.7”.
Consider `CN1CC[C@]23c4c5ccc(O)c4O[C@H]2[C@@H](O)C=C[C@H]3[C@H]1C5` [morphine, reference compound], for which, in series [1] (mouse, in vivo, 5 mg/kg), the “total licking time, phase I (morphine)” value is recorded as 7.5 ± 1.6 s and the “total licking time, phase II (morphine)” value was determined as 42.1 ± 6.1 s.
On to “ProTx2 (Protoxin-II), wild type, recombinant (from UniProt P83476 1-30) (peptide)”, for which the peak sodium current amplitude (normalized) of hNav1.7-CHO cells, whole-cell patch clamp, peptide at 1 μM in series [6] amounted to 82%. Further, the peak sodium current amplitude (normalized) of hNav1.4-CHO cells, whole-cell patch clamp, peptide at 1 μM in series [7] was 50%.
In series [6], “ProTx2 mutant R13D, recombinant (from UniProt P83476 1-30) (peptide)” displayed a peak sodium current amplitude (normalized) of hNav1.7-CHO cells, whole-cell patch clamp, peptide at 1 μM of 68%. Besides, in series [7], the peak sodium current amplitude (normalized) of hNav1.4-CHO cells, whole-cell patch clamp, peptide at 1 μM is 59%.
